In the METLIN SMRT retention time set (Domingo-Almenara et al. 2019) one finds RP-LC retention time data, which are given here for 58 molecules.

The data set in a line: gradient 5% acetonitrile 3 min, to 50% in 2 min, to 85% in 15 min, held 3 min, 100 µL/min. The conditions noted are these: column: Zorbax Extend-C18 2.1 x 50 mm; eluents: water / acetonitrile, 0.1% formic acid. In a few lines:
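Retention time was recorded from adduct peaks, which were picked computationally and each inspected manually. Pure standards ran in mixtures of ~100 molecules on HPLC coupled to a quadrupole time-of-flight mass spectrometer, in positive and negative ionization mode, through a Zorbax Extend-C18 column (2.1 × 50 mm, 1.8 μm) at 100 μL/min. Eluents were water and acetonitrile, each with 0.1% formic acid.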
`CCc1noc(NC(C)=O)c1-c1ccc(C)c(S(=O)(=O)NCc2ccc(F)cc2)c1` registered an RP-LC retention time of 814 s. `CN1C(=O)c2cccn2CC1C(=O)NCc1ccco1` (stereo not drawn): the RP-LC retention time was found to be 613 s.

The molecule `CC1(C(=O)NCc2ccccc2)CCN(C(=O)Nc2cccc(C(F)(F)F)c2)CC1` had an RP-LC retention time of 919 s.

`Cc1nc(-c2cccc(-c3noc(CN4C(=O)COc5ccc(Cl)cc54)n3)c2)cs1` gave an RP-LC retention time of 1180 s. The figure for `O=C(C1=NN(CCc2ccccc2)c2ccccc2S1(=O)=O)N1CCCCCC1` is 1020 s; for `CCN1C(=O)C2(CCN(S(=O)(=O)CC)CC2)c2ccccc21` it is 774 s. `CCc1ccc(NC(=O)Cc2nnc3c(-c4nc(C5CC5)no4)cccn23)cc1` had an RP-LC retention time of 805 s.

With `CCOc1ccc(-c2cc3c(=O)n(Cc4nc(-c5ccc(C)cc5)no4)ccn3n2)cc1`, the RP-LC retention time stood at 1160 s.

Molecule `Cc1cc(C)c(NS(=O)(=O)c2cc(-c3nc(C)c(C)s3)sc2C)c(C)c1` had an RP-LC retention time of 1260 s. On to `Cc1noc(C)c1S(=O)(=O)N1CCC2(CC1)N(c1ccccc1)C(=O)CS2=O` (stereo not drawn), for which the RP-LC retention time stood at 708 s.

In the case of `COc1ccc(-c2csc(NC(=O)Nc3ccc(Cl)c(Cl)c3)n2)cc1Br`, the RP-LC retention time is 1280 s. The figure for `Cc1nn(-c2nc(-c3ccc(Cl)cc3)cs2)c(C)c1CC(=O)NC(C)C` is 1080 s.

The molecule `Cc1ccc2c(c1)C(=O)NC1(CCN(C(=O)NCCc3ccccc3)CC1)N2C` showed an RP-LC retention time of 755 s. Take `O=C(Nc1ccccc1F)N1CCC(CCOc2ccccc2)CC1`: the RP-LC retention time is 1030 s. In the case of `CCOC(=O)c1cc2n(n1)CC(C)(C(=O)NCc1ccccc1)N(Cc1ccccc1)C2=O` (stereo not drawn) it was 880 s; in that of `Cc1csc(-c2ccc(N3CCN(C(=O)c4cccc(C#N)c4)CC3)nc2)n1`, 771 s. In the case of `CCCCNC(=O)c1nc(Nc2ccc(F)cc2)c2ccccc2n1`, the RP-LC retention time came out at 796 s. Molecule `COCCNc1c(-c2ccc(F)cc2)nc2sc(C(=O)NCc3cccnc3)c(C)n12` yielded an RP-LC retention time of 631 s. Consider `O=c1n(Cc2cc(F)cc(F)c2)nc2c(S(=O)(=O)N3CCCC3)cccn12`, for which the RP-LC retention time amounted to 861 s. `CC(C)(C)NCC(O)COc1cccc2[nH]c(=O)[nH]c12` (stereo not drawn): the RP-LC retention time turned out to be 603 s. In the case of `Cc1cc(Cl)ccc1N1C(=O)CN(S(C)(=O)=O)CC1(C)C(=O)NCc1ccc(F)cc1` (stereo not drawn), the RP-LC retention time is 888 s. The molecule `O=C(Cn1c(=O)c(CCC(=O)NC2CCCC2)nc2ccccc21)Nc1ccc(F)cc1` returned an RP-LC retention time of 808 s. The molecule `Cc1cc(C)cc(NC(=O)c2c(O)c3cccnc3n(-c3ccccc3)c2=O)c1` had an RP-LC retention time of 1430 s. For the molecule `COc1ccc(NC(=O)c2nc(C)oc2C)c(OC)c1`, the RP-LC retention time was determined as 913 s. In turn, `CCCC(=O)N1CCCC1COc1ccc(C(=O)N2CCCC2)cc1` (stereo not drawn) yielded an RP-LC retention time of 600 s. As for `O=C(CN1C(=O)C2CCCCC2C1=O)N1CCN(Cc2ccc3c(c2)OCO3)CC1` (stereo not drawn), the RP-LC retention time came to 603 s. In the case of `CN(CCNC(=O)C1CCCN(c2ncnc3c2nc2n3CCCCC2)C1)C1CCCCC1` (stereo not drawn) it was 612 s; in that of `O=C(Nc1ccc(F)cc1)C1CCCN(c2nc3ccccc3nc2C(F)(F)F)C1` (stereo not drawn), 1190 s. In the case of `Cc1ccc(NC(=O)N2CCC(n3cnc4c(C)cccc4c3=O)CC2)cc1` it was 801 s; in that of `CCOC(=O)C1CCN(CC(O)COC2CCCC2)CC1` (stereo not drawn), 562 s.

As to `O=C(NCc1ccc(F)cc1)c1cn2c(n1)COCC2`, the RP-LC retention time is 631 s. `O=c1ccc(-c2ccc(F)cc2)nn1CCc1nc(-c2ccccc2Br)no1` came in with an RP-LC retention time of 1010 s. `COC(=O)c1cccc(NC(=O)CSc2nccc(N3CCN(c4ccc(OC)cc4)CC3)n2)c1`: the RP-LC retention time came out at 743 s.

`O=C(C1CCCN(S(=O)(=O)c2cc(-c3noc(C4CCCC4)n3)cs2)C1)N1CCOCC1` (stereo not drawn): the RP-LC retention time was found to be 966 s. `CC(C)(C)C(=O)N1CCN(c2ncccc2-c2nnc(C3CC3)o2)CC1` displayed an RP-LC retention time of 760 s. In turn, `Cn1nnc2c(N3CCN(C(=O)c4c(F)cccc4Cl)CC3)ncnc21` registered an RP-LC retention time of 687 s. In turn, `O=C1CCc2cc(NC(=O)c3cc(-c4ccccc4)nc4ccccc34)ccc2N1` registered an RP-LC retention time of 818 s. On to `CC(NC(=O)CCCn1c2ccccc2c2cnn(C)c(=O)c21)c1ccc2c(c1)OCCO2` (stereo not drawn), for which the RP-LC retention time came out at 842 s. In turn, `COC(=O)CC(=O)Nc1ccc(-c2nc(-c3ccccc3)co2)cc1` gave an RP-LC retention time of 906 s. For the molecule `CCC(C)NC(=O)c1ccc(Cn2nc(C)c(S(=O)(=O)N3CCCCC3)c2C)cc1` (stereo not drawn), the RP-LC retention time was found to be 874 s. In the case of `CCN1CCCC1CN(CC(=O)N1CCNCC1)S(=O)(=O)c1cc(Cl)ccc1OC` (stereo not drawn) it was 573 s. On to `Cc1ccc(-c2nc(CCN(C)C(=O)Nc3cc(F)ccc3F)no2)cc1`, for which the RP-LC retention time is 994 s. In the case of `O=C(Cn1c(=O)oc2ccc(C(=O)N3CCCC3)cc21)N1CCN(c2cccc(Cl)c2)CC1` it was 842 s; in that of `COc1cccc(CNC(=O)C2(C)CCCN(C(=O)NCCc3ccccc3)C2)c1` (stereo not drawn), 855 s. `CCN1CCN(CCNC(=O)C2CCN(c3nc4cccnc4s3)CC2)CC1` had an RP-LC retention time of 559 s. `CCOCC(=O)N1CC(c2nc(CCOCC3CCOCC3)no2)C1`: the RP-LC retention time was found to be 644 s. Regarding `O=C(c1ccco1)N1CC(Oc2cccc(-c3nc(-c4ccccc4)no3)c2)C1`, the RP-LC retention time stood at 1120 s. In turn, `Oc1ccc(-c2nc3ncccn3c2Nc2cccc(C(F)(F)F)c2)cc1` yielded an RP-LC retention time of 764 s. The molecule `Cc1cnc(C(=O)N2CCC(N3C(=O)C(OCC4CC4)C34CCOCC4)CC2)cn1` (stereo not drawn) registered an RP-LC retention time of 618 s. The figure for `O=C(Nc1cccc(Br)c1)c1cccn1Cc1noc(C2CC2)n1` is 1040 s; for `COc1ccccc1NC(=O)N1CCC2(CC1)NC(=O)c1cc(F)ccc1N2C` it is 756 s. In the case of `CCN1CCN(CCCNC(=O)C2CCCN(C(=O)c3[nH]c(C)c(C(=O)OC(C)C)c3C)C2)CC1` (stereo not drawn), the RP-LC retention time came out at 579 s.

In turn, `CC(C)(C)c1noc(-c2cccnc2-n2cnc(C(=O)NC3CCCC3)c2)n1` yielded an RP-LC retention time of 968 s. `Cc1ccccc1S(=O)(=O)N1[C@H]2CC[C@@H]1c1cnc(-c3ccc(F)cc3)nc1C2`: the RP-LC retention time turned out to be 1210 s. Consider `Cc1nnc(N2CCCC(C(=O)NCc3ccccc3Cl)C2)c2nn(-c3ccccc3)c(C)c12` (stereo not drawn), for which the RP-LC retention time is 759 s. With `Cn1cnc(S(=O)(=O)N2CCc3c(c(-c4nncn4Cc4ccccc4)nn3C)C2)c1`, the RP-LC retention time was determined as 682 s.

As to `O=C(CC1CCCC1)Nc1cnc(-c2ccccc2)nc1`, the RP-LC retention time was determined as 990 s. For the molecule `CCOC(=O)c1ccc(NC(=O)N2CCC(n3c(C(F)(F)F)nc4cccnc43)CC2)cc1`, the RP-LC retention time worked out at 920 s.
